Tests used:
green algae = test: DNA2-59-1 first pond efficacy study: green algae abundance; type: in vivo; details: first study, 0.1, 0.3 and 1 μM
Protocol: (§1) The method described by Schrader et al. (2000) was used to determine the potential for using the anthraquinone derivatives as selective algicides in catfish aquaculture ponds. All catfish ponds used in efficacy tests were maintained using commercial pond management practices and were located at the Thad Cochran Pond Facility, Mississippi State University, Stoneville, Miss. Anthraquinone analogs were dissolved in deionized water before application to water within the limnocorrals.
(§2) Limnocorrals in which test compound was applied to the enclosed water were randomly selected, and control (no test compound applied) limnocorrals were included in each efficacy study. […]
(§3) In the first study, application rates of 0.1 μM (37.7 μg/L), 0.3 μM ([…]), and 1.0 μM (377 μg/L) of DNA2-59-1 were tested using limnocorrals (three replicates per concentration) that were of the same type used for testing DNA1-19-1. […] Water samples were also analyzed to determine the persistence of DNA2-59-1 in the pond water, and this analysis was performed by using high-pressure liquid chromatography (HPLC) (method and results are described later).

Anabaena circinalis = test: DNA2-59-1 first pond efficacy study: Anabaena circinalis abundance; type: in vivo
Protocol: as §1, §2, §3

diatoms = test: DNA2-59-1 second pond efficacy study: diatom abundance; type: in vivo, diatoms (division Chromophyta, class Bacillariophyceae); details: 0.3 μM
Protocol: as §1
(§4) Limnocorrals in which test compound was applied to the enclosed water were randomly selected, and control (no test compound applied) limnocorrals were included in each efficacy study. For each sampling, two water samples (250 mL) were obtained from within each limnocorral (approximately 6-8 cm below the water surface and from opposite sides of each limnocorral) and mixed together in a 500 mL sample bottle to provide a representative sample of the water contained within the limnocorral.
In the second efficacy test with DNA2-59-1, six limnocorrals (1.53 m in diameter and 1.53 m high) were placed in a 0.1-ha earthen pond containing a heavy bloom of O. perornata. The same delay in mixing the water within the limnocorrals used in the first efficacy study was utilized. Water within three randomly selected limnocorrals received an application rate of 0.3 μM DNA2-59-1, and the other three limnocorrals were controls. […]

[1] = DNA2-59-1 second efficacy study: dissipation rate and half-life in pond water (HPLC); type: physicochemical; details: for DNA2-59-1 Levels in Pond Water: second study, 0.3 μM applied
Protocol: In the second efficacy test with DNA2-59-1, six limnocorrals (1.53 m in diameter and 1.53 m high) were placed in a 0.1-ha earthen pond containing a heavy bloom of O. perornata. The same delay in mixing the water within the limnocorrals used in the first efficacy study was utilized. Water within three randomly selected limnocorrals received an application rate of 0.3 μM DNA2-59-1, and the other three limnocorrals were controls. Water samples were collected before application of DNA2-59-1, 20 minutes after application, and at days 1, 2, 3, and 7. The same tests and methods used in the first efficacy testing of DNA2-59-1 were used.
Approximately 15 mL each of water samples from DNA2-59-1 efficacy testing that were designated for HPLC analysis were placed in scintillation vials and held in a freezer. Water samples were later melted at room temperature, and 5 mL of each sample was then filtered through a nylon membrane filter (13 mm diameter and 0.45 μm; Whatman International, Maidstone, England) using a 5 mL syringe (Hamilton Company, Reno, Nev.) and a 13 mm syringe filter holder (Fisher Scientific Company, Pittsburgh, Pa.). Filtrate (1 mL) was placed in 2 mL vials and capped using teflon/rubber septum caps (National Scientific Company, Jeddah, Saudia Arabia). The filter paper was removed and placed in a scintillation vial to which 2 mL of HPLC grade methanol (Fisher Scientific, Fair Lawn, N.J.) was added and then sonicated for 5 minutes. The methanol solution was then filtered using a nylon membrane acrodisc (25 mm and 0.45 μm; Pall Life Sciences, Ann Arbor, Mich.), and the methanol filtrate was placed in separate 2 mL vials.
Filtrate samples were analyzed using a Waters 2690 Alliance HPLC containing a 996 PDA detector and a XTerra RP 18 column (150 mm×4.6 mm, 5 μm particle size; Waters Corporation, Milford, Mass.). The mobile phase consisted of 25 mM sodium dihydrogenphosphate in 0.1% phosphoric acid (A) and acetonitrile (B). The gradient was from 80A/20B in 15 minutes to 40A/60B. After each run, a 5 minute wash with methanol was performed, followed by equilibrating the column for 10 minutes with 80A/20B. The temperature was set at 40° C., the flow rate was 1 mL/minute, the detection wavelength 256 nm, and the sample injection volume was 10 μL. All solvents used were HPLC grade (Fisher Scientific, Fair Lawn, N.J.).
Means and standard deviations of data were determined and graphed. The graphs were used to help determine the half-life of DNA2-59-1 in the pond water. Because of the short duration of the first efficacy study, the half-life of DNA2-59-1 in the pond water could not be determined.

geosmin = test: DNA2-59-1 first pond efficacy study: geosmin levels; type: in vivo; details: 1 μM
Protocol: as §1, §2, §3

Oscillatoria geminata = test: DNA2-59-1 third pond efficacy study: Oscillatoria geminata abundance; type: in vivo; details: 0.3 μM, from two days through four days after application
Protocol: as §1, §4
For the third efficacy test with DNA2-59-1, twelve limnocorrals (2.44 m in diameter and 1.53 m high) were placed in a 4-ha earthen pond containing a bloom of O. perornata. […]

SMILES: CC(C)NCc1ccc2c(c1)C(=O)c1ccccc1C2=O [DNA2-59-1, 2-[methylamino-N-(1′-methylethyl)]-9,10-anthraquinone monophosphate]
- Numbers of green algae compared to controls (result in words) (green algae): not significantly affected
- Numbers of Anabaena circinalis compared to controls (result in words) (Anabaena circinalis; 1 μM): significantly reduced
- filaments of A. circinalis present (result in words) (Anabaena circinalis; 16 hours after application of 1 μM): no filaments of A. circinalis were observed to be present
- diatoms (result in words) (diatoms): not significantly affected
- half-life at 0.3 μM ([1]; pond water in limnocorrals (earthen catfish pond), second efficacy study): 19 h
- DNA2-59-1 Levels in Pond Water ([1]; 0 hours): 94.8 ± 11.5 µg/L
- DNA2-59-1 Levels in Pond Water ([1]; 24 hours): 36.1 ± 4.5 µg/L
- DNA2-59-1 Levels in Pond Water ([1]; 48 hours): 16.3 ± 0.4 µg/L
- DNA2-59-1 Levels in Pond Water ([1]; 72 hours): 7.6 ± 0.7 µg/L
- DNA2-59-1 Levels in Pond Water ([1]; 168 hours): 0 µg/L
- decrease of geosmin levels compared to controls and 0.1 and 0.3 μM (result in words) (geosmin): to a greater degree and significantly more
- abundance of Oscillatoria geminate vs controls (result in words) (Oscillatoria geminata): significantly lower than controls
